Consider one molecule from patent US9540646B2, “Cellular targets for HIV infection” (priority 2012, dated 2017).

Entries after “also recorded” stand apart in the source; their conditions may differ.

In data set [1] the test system is Macrophages. The data set is described as follows: Cell viability of macrophages, live/dead assay. In kind it is cell-based. The conditions noted are these: 100 μM, 24 hours. From the text: Cells were imaged using a Zeiss AxioObserver.D1 with an LD Plan-Neofluar 20×/0.4 air objective lens. Images were collected at room temperature through a Zeiss AxioCam MRm camera using Axiovision software.

Data set [2] concerns HIVADA. In words: Immunofluorescence, percentage of HIV p24 positive macrophages. The class given is cell-based, Human immunodeficiency virus-1 (HIV). As to conditions: 100 μM oATP, 7 d.p.i. How it is done:
Immunofluorescence: After 6 days in culture, macrophages cultured in 35 mm MatTek dishes at a density of 10^6 cells per dish were inoculated with 20 ng/ml HIVADA for 24 hours in the presence or absence of oATP. Two MatTek dishes were inoculated per condition. After 24 hours, cells were washed with PBS and cultured with media. Fresh oATP was added and the medium was changed every 24 hours until 7 d.p.i. Cells were then fixed using cold 70% ethanol for 20 minutes. Cells were washed with PBS and blocked using 0.9% fish gelatin, 50 μM EDTA. 1% horse serum, and 1% globulin-free albumin. The following primary antibodies were used: mouse monoclonal HIV p24 antibody from Abeam at a 1:50 dilution (Cambridge, Mass.) or mouse myeloma IgG1 (Sigma) as a negative control. Secondary antibody staining was with anti-mouse IgG F(ab)′2 fragment conjugated to FITC (Sigma). Actin was stained using Texas Red-X conjugated to phalloidin (Invitrogen, Eugene, Oreg.). ProLong Gold antifade reagent containing DAPI was added to all cells to stain for nuclei. Cells were imaged using a Zeiss AxioObserver.D1 with an LD Plan-Neofluar 20×/0.4 air objective lens. […] Images for 15 fields per condition were analyzed and percentage of p24 positive cells determined by counting number of nuclei in cells with green cytoplasmic staining.

In data set [3] the test system is β-lactamase containing HIVBaL. In words: HIV Entry Assay (β-lactamase / CCF2-AM) in primary human macrophages. In kind it is cell-based, Human immunodeficiency virus-1 (HIV). The conditions noted are these: 100 μM; 4 hours; MOI 0.001-0.01; oATP N=5, others N=3. The protocol: HIV Entry Assay: Primary human macrophages were cultured in black 96-well plates with a clear bottom (Corning Inc., Corning, N.Y.) at a density of 43,000 cells per well. After 7-8 days in culture, cells were inoculated with β-lactamase containing HIVBaL at a multiplicity of infection (MOI) of 0.01, 0.005, or 0.001 in the presence or absence of the purinergic receptor inhibitors oATP, NF 279, A-740003, or MRS 2179 for 4 hours. Beta-lactamase containing HIVBaL was generated as described previously (27). Briefly, HEK-293T cells were transfected using calcium phosphate with two plasmids, one containing the HIVBaL genome, pWT/BaL (NIH repository), the other containing β-lactamase fused to REV vpr, pMM310 (NIH repository). Cells were transfected for 16 hours and then supernatant was collected 24 and 48 hours following transfection. […] Viral stocks were generated by sucrose gradient purification of the transfection supernatants.
Alter viral inoculation of primary human macrophages, cells were washed with phenol red-free DMEM (Gibco) then loaded with CCF2-AM for 6 hours at room temperature using the GeneBLAzer In Vivo Detection Kit (Invitrogen, Carlsbad, Calif.). CCF2-AM fluoresces green due to an internal fluorescence resonance energy transfer, but when cleaved by β-lactamase, this interaction is lost and the molecule fluoresces blue. Cells were imaged using an Olympus IX70 with a Plan 10×/0.25 air objective lens. Images were collected at room temperature through an Olympus E-620LS camera attached to the microscope through an OM adapter MF-1. Images were collected directly onto a memory card and there was no image processing following image collection. Images were collected for 8 fields in 4 separate wells per condition and percentage of cells positive for viral entry was determined by counting the number of blue cells (cells that virus had entered) as compared to the total number of blue and green cells.

In data set [4] the test system is HIVBaL. The data set is described as follows: HIV replication in primary human macrophages, HIV p24 ELISA. In kind it is cell-based, Human immunodeficiency virus-1 (HIV). The conditions noted are these: 100 μM oATP; according to d.p.i.; N=3. From the text:
(§1) Monocyte isolation and macrophage culture: Human monocytes were isolated from leukopaks obtained from the New York Blood Center. Peripheral blood mononuclear cells (PBMCs) were isolated by differential centrifugation using a Ficoll gradient (GE Healthcare, Piscataway, N.J.) and CD14 positive cells were isolated from PBMCs using CD14 monoclonal antibodies that were then bound by magnetic nanoparticles and separated using a magnetic field (Stem Cell Technologies, Vancouver, BC, Canada). Isolated CD14 positive cells were cultured adherently for 6 days in the presence of 10 ng/ml macrophage-colony stimulating factor (PeproTech, Rocky Hill, N.J.) in RPMI 1640 with 10% FBS, 5% human AB serum, 1% P/S, and 10 mM HEPES to differentiate the cells into macrophages.
(§2) HIV replication: After 6 days in culture, macrophages in 48-well plates at a density of 10^5 cells per well were inoculated with 2-20 ng/ml HIVADA, 2 ng/ml HIVYU-2, or 0.2 ng/ml HIVBaL for 24 hours in the presence or absence of purinergic receptor inhibitors. 5 wells were inoculated per condition. After 24 hours, cells were washed with PBS and then cultured with media. Supernatants were collected and medium was changed every 24 hours until 7 days post inoculation (d.p.i.). When the inhibitors oATP, A-740003, MRS 2179, NF 279, BBG, or suramin, were used, they were added when the medium was changed every 24 hours. Viral replication was analyzed by HIV p24 ELISA (Advanced Bioscience Laboratories, Kensington, Md.) according to the manufacturer's instructions

Data set [5] has as its system HIVYU-2. The description is as above. The class given is cell-based, Human immunodeficiency virus-1 (HIV). The conditions noted are these: 100 μM oATP; every d.p.i.; N=3.
Excerpt: as §1, §2

The test system of data set [6] is HIVADA. The description is as above. In kind it is cell-based, Human immunodeficiency virus-1 (HIV).
Excerpt: as §1, §2

Data set [7] deals with purinergic receptors. As to conditions: in vivo mouse model; reference 99; cited from earlier work.

For `Nc1ncnc2c1ncn2[C@@H](C=O)O[C@@H](C=O)COP(=O)(O)OP(=O)(O)OP(=O)(O)O` [oATP, oxidized ATP], the “cell viability (live/dead assay)” value in data set [1] is on record as “None of the antagonist caused any decrease in cell viability; also recorded: did not reduce cell viability”. Moreover, in data set [2] (20 ng/ml HIVADA, N=3), the “decrease in the percentage of HIV p24 positive cells” value was determined as 92%. The “multinucleated giant cells in cultures” value in data set [2] (HIVADA, compared to HIV infected cultures) was “very few multinucleated giant cells were detected”. In addition, the “reduction in viral entry (percentage of cells with viral entry) relative to HIV only” value in data set [3] came to 57%. In addition, the “HIVBaL replication reduced relative to HIV only” value in data set [4] was 89-97%. Moreover, the “HIVYU-2 replication reduced relative to HIV only” value in data set [5] is on record as “over 99%”. Further, in data set [6] (1 μM oATP, N=5), the “effect on HIVADA p24 production” value is recorded as “no effect”. Besides, in data set [6] (10 μM oATP, depending upon d.p.i., N=5), the “inhibition of HIVADA p24 production relative to HIV only” value was 50-85%. In data set [6] (100 μM oATP, depending upon the d.p.i., up to 7 d.p.i., N=10), the “HIVADA replication reduced (HIV p24) relative to HIV only” value is reported as 92-99%. Moreover, the “onset of diabetes and inflammatory bowel disease” value in data set [7] is “can prevent the onset of diabetes and inflammatory bowel disease”.
